Active and inactive are the calls of the source. The calls are words filed in the database; no cut-off is given here.
Assays:
[1] = biological target: Fibroblast growth factor 1 (Homo sapiens) (UniProt P05230); test: Binding affinity to FGF-1 (unknown origin) at 800 nM by SPR assay
[2] = biological target: T1, Pleiotrophin (Homo sapiens) (UniProt P21246); test: Binding affinity to PTN (unknown origin) at 800 nM by SPR assay
T1 sequence (whole entry): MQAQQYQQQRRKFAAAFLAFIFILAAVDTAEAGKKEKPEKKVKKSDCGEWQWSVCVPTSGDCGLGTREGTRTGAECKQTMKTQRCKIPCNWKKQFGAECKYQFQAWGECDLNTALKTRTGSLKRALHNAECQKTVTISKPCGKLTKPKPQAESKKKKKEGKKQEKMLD

Midkine (Homo sapiens) = biological target: T2, Midkine (Homo sapiens) (UniProt P21741); test: Binding affinity to MDK (unknown origin) at 800 nM by SPR assay
T2 sequence (whole entry): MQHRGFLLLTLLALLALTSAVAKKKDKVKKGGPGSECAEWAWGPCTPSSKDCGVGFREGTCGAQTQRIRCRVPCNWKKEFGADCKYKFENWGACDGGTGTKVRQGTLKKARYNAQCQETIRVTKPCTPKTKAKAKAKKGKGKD

[3] = biological target: T3, Neurotrophic factor BDNF precursor form (Homo sapiens, UniProt P23560); test: Binding affinity to BDNF (unknown origin) by SPR assay
T3 sequence (P23560 whole entry): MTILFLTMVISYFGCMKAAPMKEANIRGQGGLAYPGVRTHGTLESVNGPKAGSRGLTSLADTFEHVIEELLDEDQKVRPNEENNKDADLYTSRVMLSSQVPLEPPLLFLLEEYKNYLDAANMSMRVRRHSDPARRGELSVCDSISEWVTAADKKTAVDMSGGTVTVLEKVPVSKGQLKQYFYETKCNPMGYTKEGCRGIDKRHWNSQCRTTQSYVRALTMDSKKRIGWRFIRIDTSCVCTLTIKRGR

[4] = Induction of neurite outgrowth in Sprague-Dawley E18 rat hippocampal neurons assessed as neurite length after 24 hrs by DAPI staining-based assay relative to control; format: functional, Hippocampal neurone
Hippocampal neurone [5] = test: Induction of neurite outgrowth in Sprague-Dawley E18 rat hippocampal neurons assessed as neurite length at 250 ug/ml solubilized in culture media after 24 hrs by DAPI staining-based assay relative to control; format: functional, cell-based
Hippocampal neurone [6] = test: Induction of neurite outgrowth in Sprague-Dawley E18 rat hippocampal neurons assessed as neurite length after 24 hrs in presence of anti-BDNF antibody by DAPI staining-based assay relative to control; format: functional, cell-based
Pleiotrophin = biological target: T4, Pleiotrophin (Homo sapiens, UniProt P21246); test: Binding affinity to PTN (unknown origin) by SPR assay
T4 sequence (P21246 whole entry): T1 sequence (whole entry)

Midkine = biological target: T5, Midkine (Homo sapiens, UniProt P21741); test: Binding affinity to MDK (unknown origin) by SPR assay
T5 sequence (P21741 whole entry): T2 sequence (whole entry)

Hippocampal neurone [7] = test: Induction of neurite outgrowth in Sprague-Dawley E18 rat hippocampal neurons assessed as neurite length after 24 hrs in presence of anti-MDK antibody by DAPI staining-based assay relative to control; format: functional, cell-based
Hippocampal neurone [8] = test: Induction of neurite outgrowth in Sprague-Dawley E18 rat hippocampal neurons assessed as neurite length at 50 ug/ml in presence of Proteus vulgaris Chondroitinase ABC after 12 hrs by DAPI staining-based assay relative to control; format: functional, cell-based
[9] = biological target: T6, Neurotrophic factor BDNF precursor form (Homo sapiens) (UniProt P23560); test: Binding affinity to BDNF (unknown origin) at 800 nM by SPR assay
T6 sequence (whole entry): T3 sequence (P23560 whole entry)

Sequence of Fibroblast growth factor 1 (Homo sapiens) (P05230 whole entry): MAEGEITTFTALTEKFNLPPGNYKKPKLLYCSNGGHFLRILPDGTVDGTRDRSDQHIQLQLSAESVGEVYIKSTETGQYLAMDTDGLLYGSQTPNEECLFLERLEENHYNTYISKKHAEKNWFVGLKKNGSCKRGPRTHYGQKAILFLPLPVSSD

Row | SMILES | Activity [1] | Activity [2] | Activity (Midkine (Homo sapiens)) | Kd [3] [nM] | Activity [4] [%] | Activity (Hippocampal neurone [5]) | Activity (Hippocampal neurone [6]) | Kd (Pleiotrophin) [nM] | Kd (Midkine) [nM] | Activity (Hippocampal neurone [7]) | Activity (Hippocampal neurone [8]) | Activity [9]
1 | CC(=O)N[C@H]1[C@H](O[C@H]2[C@H](O)[C@@H](O)[C@H](O[C@@H]3[C@@H](NC(C)=O)[C@H](OCCCCCCN=[N+]=[N-])O[C@H](COS(=O)(=O)O)[C@H]3OS(=O)(=O)O)O[C@@H]2C(=O)O)O[C@H](COS(=O)(=O)O)[C@@H](OS(=O)(=O)O)[C@@H]1O[C@@H]1O[C@H](C(=O)O)[C@@H](O)[C@H](O)[C@H]1O | inactive | inactive | inactive | 659 | 6.7 |  |  |  |  |  |  | 
2 | CC(=O)N[C@H]1[C@H](O[C@H]2[C@H](O)[C@@H](O)[C@H](O[C@H]3[C@H](O)[C@@H](COS(=O)(=O)O)O[C@@H](OCCCCCCN=[N+]=[N-])[C@@H]3NC(C)=O)O[C@@H]2C(=O)O)O[C@H](COS(=O)(=O)O)[C@@H](O)[C@@H]1O[C@@H]1O[C@H](C(=O)O)[C@@H](O)[C@H](O)[C@H]1O | inactive |  |  | 490 | 27.3 | inactive | inactive | 77.8 | 52.3 | inactive |  | 
3 | CC(=O)N[C@H]1[C@H](O[C@H]2[C@H](O)[C@@H](O)[C@H](O[C@@H]3[C@@H](NC(C)=O)[C@H](OCCCCCCN=[N+]=[N-])O[C@H](COS(=O)(=O)O)[C@@H]3OS(=O)(=O)O)O[C@@H]2C(=O)O)O[C@H](COS(=O)(=O)O)[C@H](OS(=O)(=O)O)[C@@H]1O[C@@H]1O[C@H](C(=O)O)[C@@H](O)[C@H](O)[C@H]1O | inactive |  |  | 155 | 29.6 | inactive |  | 365 | 96.3 |  | inactive | 
4 | CC(=O)N[C@H]1[C@H](O[C@H]2[C@H](O)[C@@H](O)[C@H](O[C@@H]3[C@@H](NC(C)=O)[C@H](OCCCCCCN=[N+]=[N-])O[C@H](CO)[C@H]3OS(=O)(=O)O)O[C@@H]2C(=O)O)O[C@H](CO)[C@@H](OS(=O)(=O)O)[C@@H]1O[C@@H]1O[C@H](C(=O)O)[C@@H](O)[C@H](O)[C@H]1O | inactive | inactive | inactive |  |  |  |  |  |  |  |  | inactive
5 | CC(=O)N[C@H]1[C@H](O[C@H]2[C@H](O)[C@@H](O)[C@H](O[C@H]3[C@H](O)[C@@H](CO)O[C@@H](OCCCCCCN=[N+]=[N-])[C@@H]3NC(C)=O)O[C@@H]2C(=O)O)O[C@H](CO)[C@@H](O)[C@@H]1O[C@@H]1O[C@H](C(=O)O)[C@@H](O)[C@H](O)[C@H]1O | inactive | inactive | inactive |  |  |  |  |  |  |  |  | inactive
6 | CC(=O)N[C@H]1[C@H](O[C@H]2[C@H](O)[C@@H](O)[C@H](O[C@H]3[C@@H](O)[C@@H](COS(=O)(=O)O)O[C@@H](OCCCCCCN=[N+]=[N-])[C@@H]3NC(C)=O)O[C@@H]2C(=O)O)O[C@H](COS(=O)(=O)O)[C@H](O)[C@@H]1O[C@@H]1O[C@H](C(=O)O)[C@@H](O)[C@H](O)[C@H]1O | inactive | inactive | inactive |  | 1 |  |  |  |  |  |  | inactive

From ChEMBL document CHEMBL4411281, “Unravel a neuroactive sHA sulfation pattern with neurogenesis activity by a library of defined oligosaccharides” (Eur J Med Chem, 2019)
